The target in assay [1] is T1, horseradish peroxidase (HRP) tagged delF508-CFTR (Homo sapiens, UniProt P13569, DEL508-508).
T1 construct: expressed in transfected cells
Description: Measurement of delF508-CFTR-HRP surface expression in CFBE41o- cells.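 For DelF508-CFTR-HRP Amax %: percent efficacy relative to reference corrector lumacaftor.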 The format is cell-based. Particulars: delF508-CFTR-HRP surface expression, CFBE41o- cells; for Emax: read-out: DelF508-CFTR-HRP Amax %; for EC50: read-out: DelF508-CFTR-HRP EC50. A digest of the protocol: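 Surface-trafficked delF508-CFTR detected via extracellular HRP tag, read as luminescence from a membrane-impermeant substrate in CFBE41o- cells. Cells pre-induced 48h with 500 ng/mL doxycycline, then exposed 24h at 37° C to a 10-point, 3-fold dilution series from 10 μM (DMSO ≤0.5%). Triplicate dose-responses fitted logistically for EC50 after per-plate normalization; fold change versus reference compound.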

For assay [2], the target named is T2, delF508-CFTR (Homo sapiens, UniProt P13569, DEL508-508).
T2 construct: functional activity of the CFTR channel (Chloride ion transport) in patient derived primary human bronchial epithelial cells; host or cells: patient-derived primary human bronchial epithelial cells (delF508-CFTR)
Description: Measurement of delF508-CFTR functional activity in primary human bronchial epithelial cells (HBECs) using Multi-Transepithelial Clamp Circuit (MTECC-24) assay. Type of assay: cell-based. The settings on record: primary CF HBECs; for MTECC24 CFHBEC- Amax %: test compound added 24h before assay plus potentiator, relative to reference combination (2 μM corrector + 0.5 μM potentiator); for EC50: test compound added 24h before assay, in the presence of potentiator, mean of at least two replicates, read-out: MTECC24 CFHBEC- EC50. A digest of the protocol: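 Compound tested as 10-point, 1-in-3 concentration response (0.1% or 0.2% DMSO), 24 h basolateral pre-incubation, then re-added to both sides. MTECC-24 measured Ieq in ALI-differentiated primary delF508 bronchial cells after amiloride, forskolin activation, potentiator and INH-172 block; data normalized to DMSO baseline, EC50 fitted.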

Molecules are shown by their SMILES. Structures can show the parent of a compound that is named as a salt.

T2 sequence (P13569 with tags, fused parts or gaps DEL508-508): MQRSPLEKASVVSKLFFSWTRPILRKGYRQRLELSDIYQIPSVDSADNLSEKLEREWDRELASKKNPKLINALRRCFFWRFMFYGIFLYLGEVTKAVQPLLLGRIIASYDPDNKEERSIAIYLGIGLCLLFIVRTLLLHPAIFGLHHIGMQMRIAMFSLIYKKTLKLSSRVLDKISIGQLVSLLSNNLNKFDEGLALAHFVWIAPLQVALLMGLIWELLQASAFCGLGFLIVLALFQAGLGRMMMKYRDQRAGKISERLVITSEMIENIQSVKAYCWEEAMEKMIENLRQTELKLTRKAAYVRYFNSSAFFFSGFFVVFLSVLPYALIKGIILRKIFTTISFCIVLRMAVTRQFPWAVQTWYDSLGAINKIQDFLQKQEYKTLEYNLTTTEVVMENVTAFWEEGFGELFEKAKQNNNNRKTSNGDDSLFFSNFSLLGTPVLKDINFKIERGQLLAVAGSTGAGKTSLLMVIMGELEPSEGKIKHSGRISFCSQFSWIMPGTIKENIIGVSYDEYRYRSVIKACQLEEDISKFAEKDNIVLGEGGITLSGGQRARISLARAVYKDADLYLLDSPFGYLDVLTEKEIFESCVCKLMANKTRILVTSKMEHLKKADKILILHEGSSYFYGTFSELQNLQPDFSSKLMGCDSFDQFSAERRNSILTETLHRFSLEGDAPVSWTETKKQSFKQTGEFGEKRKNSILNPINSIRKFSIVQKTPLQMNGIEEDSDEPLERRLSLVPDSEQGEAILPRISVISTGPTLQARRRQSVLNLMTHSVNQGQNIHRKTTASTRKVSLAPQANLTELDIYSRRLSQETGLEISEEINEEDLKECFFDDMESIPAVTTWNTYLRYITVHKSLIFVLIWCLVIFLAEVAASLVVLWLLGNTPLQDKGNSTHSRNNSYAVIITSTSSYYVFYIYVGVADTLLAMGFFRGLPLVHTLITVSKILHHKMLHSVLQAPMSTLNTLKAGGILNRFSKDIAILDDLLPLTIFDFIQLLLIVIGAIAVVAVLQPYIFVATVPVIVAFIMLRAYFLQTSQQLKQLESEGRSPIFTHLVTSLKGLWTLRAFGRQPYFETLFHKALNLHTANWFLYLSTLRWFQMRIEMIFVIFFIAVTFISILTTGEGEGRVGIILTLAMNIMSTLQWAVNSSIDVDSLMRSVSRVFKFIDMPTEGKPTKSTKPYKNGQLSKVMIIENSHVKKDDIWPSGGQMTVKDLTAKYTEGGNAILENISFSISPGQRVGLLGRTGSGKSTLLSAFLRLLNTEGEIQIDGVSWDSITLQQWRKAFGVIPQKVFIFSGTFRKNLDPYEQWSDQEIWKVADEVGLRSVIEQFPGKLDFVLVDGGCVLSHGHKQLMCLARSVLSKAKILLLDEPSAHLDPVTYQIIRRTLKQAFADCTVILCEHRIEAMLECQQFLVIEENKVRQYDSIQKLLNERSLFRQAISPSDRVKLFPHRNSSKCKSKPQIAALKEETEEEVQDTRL
T1 sequence (P13569 with tags, fused parts or gaps DEL508-508): as above

For `O=S(=O)(Nc1ccc(Cl)c(-c2ccccc2C(F)(F)F)n1)c1cccc(N[C@H]2COC[C@@H]2O)n1` [Example 125, N-(5-chloro-6-(2-(trifluoromethyl)phenyl)pyridin-2-yl)-6-(((3S,4R)-4-hydroxytetrahydrofuran-3-yl)amino)pyridine-2-sulfonamide], in assay [1], the Emax turned out to be 215% and the EC50 amounted to 1940 nM. Also, in assay [2], the “MTECC24 CFHBEC- Amax %” value is recorded as 67.5% and the EC50 was found to be 47.5 nM.
Taken in the same sequence, the figures for `Nc1cc(S(=O)(=O)Nc2ccc(Cl)c(-c3ccccc3C(F)(F)F)n2)ccn1` [Example 61, 2-amino-N-(5-chloro-6-(2-(trifluoromethyl)phenyl)pyridin-2-yl)pyridine-4-sulfonamide] were 251%, 2620 nM, 74.0% and 103 nM.
On the same counts, the results for `CC(=O)N1CCN(c2cccc(S(=O)(=O)Nc3ccc(C(F)(F)F)c(-c4cc(F)ccc4C)n3)n2)CC1` [Example 180, 6-(4-acetylpiperazin-1-yl)-N-(6-(5-fluoro-2-methylphenyl)-5-(trifluoromethyl)pyridin-2-yl)pyridine-2-sulfonamide] are 627%, 1500 nM, 44.5% and 9.4 nM.
Taken in the same sequence, the figures for `COC(=O)C1CCN(c2cccc(S(=O)(=O)Nc3ccc(Cl)c(-c4c(C)cccc4C)n3)n2)CC1` [Example 246, methyl 1-(6-(N-(5-chloro-6-(2,6-dimethylphenyl)pyridin-2-yl)sulfamoyl)pyridin-2-yl)piperidine-4-carboxylate] were 875%, 1790 nM, 56.3% and 51 nM.
In the case of `Cc1cccc(C)c1-c1nc(NS(=O)(=O)c2cccc(O[C@@H]3COC[C@@H]3O)n2)ccc1Cl` (racemic) [Example 290, rac-N-[5-chloro-6-(2,6-dimethylphenyl)pyridin-2-yl]-6-{[(3R,4S)-4-hydroxyoxolan-3-yl]oxy}pyridine-2-sulfonamide], in assay [1], the Emax turned out to be 616% and the EC50 is 1440 nM. Moreover, in assay [2], the “MTECC24 CFHBEC- Amax %” value was found to be 71.4% and the EC50 came out at 46.6 nM.
On the same counts, the results for `Cc1cccc(C)c1-c1nc(NS(=O)(=O)c2cccc(NC3CCOCC3)n2)ccc1Cl` [Example 271, N-[5-chloro-6-(2,6-dimethylphenyl)pyridin-2-yl]-6-[(oxan-4-yl)amino]pyridine-2-sulfonamide] are 837%, 1080 nM, 66.6% and 8.8 nM.
Take `Cc1cccc(C)c1-c1nc(NS(=O)(=O)c2cccc(N[C@H]3C[C@@](C)(O)C3)n2)ccc1Cl` [Example 285, N-[5-chloro-6-(2,6-dimethylphenyl)pyridin-2-yl]-6-{[(1r,3s)-3-hydroxy-3-methylcyclobutyl]amino}pyridine-2-sulfonamide]: the EC50 in assay [1] was 1240 nM. In assay [2], the “MTECC24 CFHBEC- Amax %” value is reported as 74.1% and the EC50 turned out to be 18.9 nM.
For the molecule `Cc1cccc(C)c1-c1nc(NS(=O)(=O)c2ccnc(N)c2)ccc1C(F)(F)F` [Example 25, 2-amino-N-(6-(2,6-dimethylphenyl)-5-(trifluoromethyl)pyridin-2-yl)pyridine-4-sulfonamide], in assay [1], the Emax turned out to be 482% and the EC50 is 1060 nM. Also, in assay [2], the “MTECC24 CFHBEC- Amax %” value is listed as 94.2% and the EC50 was determined as 14.5 nM.
Taken in the same sequence, the figures for `O=S(=O)(Nc1ccc(Cl)c(-c2ccc(F)cc2Cl)n1)c1cccc(N2CC(O)C2)n1` [Example 214, N-(5-chloro-6-(2-chloro-4-fluorophenyl)pyridin-2-yl)-6-(3-hydroxyazetidin-1-yl)pyridine-2-sulfonamide] were 256%, 2030 nM, 71.1% and 51.9 nM.
Taken in the same sequence, the figures for `Cc1ccccc1-c1nc(NS(=O)(=O)c2cccc(N3CC[C@H](N)C3)n2)ccc1C(F)(F)F` [Example 120, (S)-6-(3-aminopyrrolidin-1-yl)-N-(6-(o-tolyl)-5-(trifluoromethyl)pyridin-2-yl)pyridine-2-sulfonamide Hydrochloride] were 270%, 2820 nM, 57.9% and 37.2 nM.
Regarding `CCOC(=O)C1(C)CCN(c2cccc(S(=O)(=O)Nc3ccc(Cl)c(-c4cc(F)ccc4C)n3)n2)CC1` [Example 256, ethyl 1-(6-(N-(5-chloro-6-(5-fluoro-2-methylphenyl)pyridin-2-yl)sulfamoyl)pyridin-2-yl)-4-methylpiperidine-4-carboxylate], in assay [1], the Emax is 662% and the EC50 came to 2780 nM. Besides, in assay [2], the “MTECC24 CFHBEC- Amax %” value is recorded as 52.6% and the EC50 turned out to be 2.9 nM.
For `Cc1ccccc1-c1nc(NS(=O)(=O)c2cccc(N3CCN(C(=O)OC(C)(C)C)[C@H](C)C3)n2)ccc1C(F)(F)F` [Example 166, tert-butyl (R)-2-methyl-4-(6-(N-(6-(o-tolyl)-5-(trifluoromethyl)pyridin-2-yl)sulfamoyl)pyridin-2-yl)piperazine-1-carboxylate], the EC50 in assay [1] was determined as 744 nM. Further, in assay [2], the “MTECC24 CFHBEC- Amax %” value was 62.4% and the EC50 came to 11.8 nM.
Take `CCOC(=O)C1(C)CCN(c2cccc(S(=O)(=O)Nc3ccc(C(F)(F)F)c(-c4ccccc4C)n3)n2)CC1` [Example 259, ethyl 4-methyl-1-(6-{[6-(2-methylphenyl)-5-(trifluoromethyl)pyridin-2-yl]sulfamoyl}pyridin-2-yl)piperidine-4-carboxylate]: in assay [1], the Emax stood at 801% and the EC50 came out at 1570 nM. Further, in assay [2], the “MTECC24 CFHBEC- Amax %” value is reported as 66.7% and the EC50 was 1.9 nM.
On the same counts, the results for `Cc1ccc(F)cc1-c1nc(NS(=O)(=O)c2ccnc(N3CC(O)C3)c2)ccc1Cl` [Example 322, N-(5-chloro-6-(5-fluoro-2-methylphenyl)pyridin-2-yl)-2-(3-hydroxyazetidin-1-yl)pyridine-4-sulfonamide] are 310%, 2610 nM, 52.6% and 222 nM.
Taken in the same sequence, the figures for `Cc1ccc(F)cc1-c1nc(NS(=O)(=O)c2cccc(N3CCC(C)(C(=O)O)CC3)n2)ccc1C(F)(F)F` [Example 262, 1-(6-{[6-(5-fluoro-2-methylphenyl)-5-(trifluoromethyl)pyridin-2-yl]sulfamoyl}pyridin-2-yl)-4-methylpiperidine-4-carboxylic Acid] were 628%, 2290 nM, 81.2% and 14 nM.
On the same counts, the results for `Cc1cccc(C)c1-c1nc(NS(=O)(=O)c2cccc(N)n2)ccc1Br` [Example 3, 6-amino-N-(5-bromo-6-(2,6-dimethylphenyl)pyridin-2-yl)pyridine-2-sulfonamide] are 688%, 1440 nM, 60.3% and 1.9 nM.
For the molecule `Cc1cccc(C)c1-c1nc(NS(=O)(=O)c2cccc(N3CCN[C@@H](CO)C3)n2)ccc1C(F)(F)F` [Example 172, (R)—N-(6-(2,6-dimethylphenyl)-5-(trifluoromethyl)pyridin-2-yl)-6-(3-(hydroxymethyl)piperazin-1-yl)pyridine-2-sulfonamide Hydrochloride], in assay [1], the Emax came to 684% and the EC50 was 2510 nM. Besides, in assay [2], the “MTECC24 CFHBEC- Amax %” value is 77.0% and the EC50 was 314 nM.
On the same counts, the results for `Cc1cccc(C)c1-c1nc(NS(=O)(=O)c2cccc(N3CC(C)(O)C3)n2)ccc1Cl` [Example 210, N-(5-chloro-6-(2,6-dimethylphenyl)pyridin-2-yl)-6-(3-hydroxy-3-methylazetidin-1-yl)pyridine-2-sulfonamide] are 507%, 716 nM, 68.7% and 2.2 nM.
On the same counts, the results for `Cc1cc(F)ccc1-c1nc(NS(=O)(=O)c2cccc(N3CC(O)C3)n2)ccc1C(F)(F)F` [Example 218, N-(6-(4-fluoro-2-methylphenyl)-5-(trifluoromethyl)pyridin-2-yl)-6-(3-hydroxyazetidin-1-yl)pyridine-2-sulfonamide] are 465%, 1750 nM, 59.5% and 23 nM.
On the same counts, the results for `Nc1cccc(S(=O)(=O)Nc2ccc(C(F)(F)F)c(-c3ccccc3C3CC3)n2)n1` [Example 28] are 429%, 1380 nM, 77.1% and 1.6 nM.
`Cc1ccc(F)cc1-c1nc(NS(=O)(=O)c2cccc(N)n2)ccc1Cl` [Example 6, 6-amino-N-(5-chloro-6-(5-fluoro-2-methylphenyl)pyridin-2-yl)pyridine-2-sulfonamide]: in assay [1], the Emax came to 612% and the EC50 worked out at 1510 nM. In assay [2], the “MTECC24 CFHBEC- Amax %” value stood at 61.0% and the EC50 came to 13.1 nM.

The EC50 is the concentration that produces a half-maximal response.
